According to US20100087476A1, “PHARMACEUTICAL COMPOUNDS” (Biovail Laboratories International (Barbados) S.R.L., priority 2008, published 2010):

What was measured:
Type in all cases: in vivo, BALB/c mice
[1] = system: OVA-sensitised mice; assay: Unrestrained whole body plethysmography (PenH) during methacholine exposure, chicken ovalbumin parenteral sensitization model of asthma
Excerpt: (§1) An animal model of asthma was used in this study that included parenteral sensitisation of mice with chicken ovalbumin (OVA) together with a suitable adjuvant (Alum). Ovalbumin is widely used as an antigen as a result of its availability and ability to induce a good Th2-type immune response due to lack of any previous exposure to this antigen. Repeated aerosol exposure to ovalbumin post-sensitisation triggers airway changes leading to hyper-responsiveness, similar to that seen in asthma. These changes can be measured following challenge with a bronchoconstricting agent such as methacholine and analysed using whole body plethysmography. Pulmonary plethysmography is used to measure the functional residual capacity (FRC) of the lungs—the volume in the lungs when the muscles of respiration are relaxed—and total lung capacity. The degree of bronchochonstriction (BHR) can be expressed as enhanced pause (Pen H), a calculated value which correlates with measurement of airway resistance, impedance and intrapleural pressure in the same mouse.
Pen H is calculated from the relationship Pen H=(Te/Tr−1)×(Pef/Pif) where;
(§2) Groups of 8 BALB/c mice aged between 5 and 8 weeks of age were sensitised by i.p. (intraperitoneal) injection with ovalalbumin (OVA) in alum on days 0 and 14 (except Group A). All animals were challenged by aerosol exposure to 5% OVA for 20 minutes daily from days 18 to 23. Treatments were given by oral gavage twice daily from day 14 to day 24. At termination (day 24), all animals were subjected to unrestrained whole body plethysmography (whole-body plethysmograph Buxco Electronics, Troy, US) during exposure to increasing doses of methacholine leading to bronchoconstriction and hyper-responsiveness. These changes can be measured using the Buxco software to determine the PenH values for each animal. BAL fluids were collected and cytospins prepared and counted differentially for the presence of infiltrating cells. The supernatant from the BAL was retained and stored at ^−80° C. for possible cytokine analysis. […]

[2] = system: OVA-sensitised mice; assay: Differential cell counts in bronchial lavage fluid (BAL), chicken ovalbumin parenteral sensitization model of asthma
Excerpt: as §1
In addition, allergy can by analysed by examination of changes in the lung and lung fluid. This can be achieved by histopathological analysis of lung tissue and analysis of the cellular infiltrate in bronchial lavage fluid (BAL). Further, additional markers of allergy such as the presence of cytokines associated with allergy, IL-4 and IL-13 can be analysed in the BAL fluid.
as §2
Mice were terminated by i.p. injection of euthatal, the trachea exposed and cells obtained from the lungs by performing bronchoalveolar lavage, 3×0.4 ml with PBS. The lavage was pooled, cells counted using a nucleocounter, pelletted and resuspended at 5×10^5 cells per ml. […]
A minimum of 5 areas were counted on each slide. Each cell type was counted and percentage cell numbers determined From this the number of cells/BAL was determined.

[3] = system: OVA-sensitised mice; assay: Lung histopathology scores (pulmonary inflammation), chicken ovalbumin parenteral sensitization model of asthma; conditions: 1 to 20 mg/kg twice daily oral gavage; probable dose-effect
Experimental: Groups of 8 BALB/c mice aged between 5 and 8 weeks of age were sensitised by i.p. (intraperitoneal) injection with ovalalbumin (OVA) in alum on days 0 and 14 (except Group A). All animals were challenged by aerosol exposure to 5% OVA for 20 minutes daily from days 18 to 23. Treatments were given by oral gavage twice daily from day 14 to day 24. At termination (day 24), all animals were subjected to unrestrained whole body plethysmography (whole-body plethysmograph Buxco Electronics, Troy, US) during exposure to increasing doses of methacholine leading to bronchoconstriction and hyper-responsiveness. These changes can be measured using the Buxco software to determine the PenH values for each animal. BAL fluids were collected and cytospins prepared and counted differentially for the presence of infiltrating cells. The supernatant from the BAL was retained and stored at ^−80° C. for possible cytokine analysis. Further, lungs were removed and placed in 10% buffered formalin for possible histopathology. […] The HE-stained sections were assessed for lung inflammation. Each lung was scored as described below. Samples were scored in blinded fashion, without knowledge of the experimental protocol or identity of groups. A semi-quantitative grading system was used to describe the degree of inflammatory change in the lungs. Descriptive comments (nature of cellular infiltration) were also recorded. […]

[4] = across 1, 10 and 20 mg/kg twice daily oral gavage, day 14-24
[5] = highest dose, 20 mg/kg twice daily oral gavage (Group E)
[6] = two lower doses (1 and 10 mg/kg twice daily oral gavage, Groups C and D)

SMILES: COc1cc2c(cc1OC)[C@H]1C[C@H](O)[C@@H](CC(C)C)CN1CC2 (single isomer, unassigned) [Isomer B]
- PenH response to methacholine [1, 4]: dose dependent effect
- airway hyper-responsiveness (PenH) [1, 5]: reduced airway hyper-responsiveness to levels just above those of the budesonide controls
- PenH response to methacholine [1, 6]: no clear difference between treated and untreated animals
- levels of eosinophil infiltration into the lung [2, 4]: dose dependent effect
- effect on lung cell infiltration [2, 5]: small
- eosinophil numbers in the BAL [2, 5]: associated reduction in eosinophil numbers in the BAL
- levels of eosinophil infiltration into the lung [2, 6]: no clear difference between treated and untreated animals
- lung pathology (mean group histopathological score) [3]: significant amelioration of pathology
